This note sets out measurements from patent US20250375503A1, “Method and System for Tuning Hormone Receptors through the Dynamic Intravenous Delivery of a Hormone According to a Target Physiological Cadence” (Well Cell Global LLC, priority 2024, published 2025).

This experiment has as its system human kidney. In words: periodic infusion of insulin into a perfused, extracted three-day-old human kidney (similar to PIR treatment). From the text: For example, using a three-day-old human kidney that was extracted or otherwise removed from the human body, after a control period, the kidney was augmented with a periodic infusion of insulin for approximately two hours at a concentration similar to the amount of insulin projected to be seen by a kidney in situ in a person who would receive physiological insulin resensitization (PIR) treatment.
The perfusate was sampled before and after passing through the kidney at five-to-fifteen-minute intervals to determine if glucose was being removed and to determine any changes in electrolytes, such as sodium and potassium.
The ability of the kidney to generate and excrete urine was monitored via a catheter attached to a ureter.
Two-millimeter punch biopsies were examined approximately every fifteen minutes with a specialized Acquyre Biosciences microscope that produces pseudo-colored images at a cellular level that reflect the extent of intracellular organellar movement. Intracellular movement is dependent on the availability of cytoplasmic ATP (adenosine triphosphate).

As to insulin, the “ability of the kidney to generate and excrete urine” value (monitored via catheter attached to a ureter, after about one hour of treatment, no excretion during control period) was “the kidney began to excrete urine”. Also, the “glucose ingested by the kidney from the perfusate” value (perfusate sampled before and after passing through the kidney at five-to-fifteen-minute intervals, periodic insulin infusion for approximately two hours, versus control period) is listed as “well in excess of the control level”. Also, the “alteration of electrolyte concentrations (sodium, potassium) in the perfusate” value (perfusate sampled before and after passing through the kidney, periodic insulin infusion, versus control period) is on record as “better alter the electrolyte concentrations in a manner similar to a kidney in situ”. Moreover, for the setting “two-millimeter punch biopsies, Acquyre Biosciences microscope, after approximately thirty minutes of perfusion, relative to control period”, the “intracellular organellar movement in punch biopsies (reflects cytoplasmic ATP)” value is reported as “obvious increase in intracellular movement relative to the control period”.
